The text below walks through data of patent US11420958B2, “Aryl and heteroaryl substituted indole compounds” (BRISTOL-MYERS SQUIBB COMPANY, priority 2017, dated 2022).

Holding throughout (format): cell-based
Assay [1] has as its target human TLR7 (Homo sapiens (Human), UniProt Q9NYK1). As to the kind of experiment: TLR7 inhibition reporter assay (HEK-Blue, SEAP). Conditions: HEK-Blue cells overexpressing human TLR7, gardiquimod 7.5 μM stimulation. In short, it runs like this:
(§1)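 Percent inhibition of agonist-induced SEAP secretion was scored against DMSO-only and reference-inhibitor controls. Stimulation lasted 22 h at 37 °C following 30 min compound pre-exposure (0.05 nM–50 μM); ligands were gardiquimod 7.5 μM, R848 15.9 μM and ODN2006 5 nM for TLR7, 8 and 9.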
For orientation: In a reporter assay the amount or activity of a reporter protein is the signal.

Assay [2] concerns the target human TLR8 (Homo sapiens (Human), UniProt Q9NR97). Briefly: TLR8 inhibition reporter assay (HEK-Blue, SEAP). Conditions: HEK-Blue cells overexpressing human TLR8, R848 15.9 μM stimulation. In short, it runs like this:
as §1

Assay [3] addresses human TLR9 (Homo sapiens (Human), UniProt Q9NR96). As to the kind of experiment: TLR9 inhibition reporter assay (HEK-Blue, SEAP). Conditions: HEK-Blue cells overexpressing human TLR9, ODN2006 5 nM stimulation. In short, it runs like this: as §1

Sequence of human TLR8 (Q9NR97 27-1041): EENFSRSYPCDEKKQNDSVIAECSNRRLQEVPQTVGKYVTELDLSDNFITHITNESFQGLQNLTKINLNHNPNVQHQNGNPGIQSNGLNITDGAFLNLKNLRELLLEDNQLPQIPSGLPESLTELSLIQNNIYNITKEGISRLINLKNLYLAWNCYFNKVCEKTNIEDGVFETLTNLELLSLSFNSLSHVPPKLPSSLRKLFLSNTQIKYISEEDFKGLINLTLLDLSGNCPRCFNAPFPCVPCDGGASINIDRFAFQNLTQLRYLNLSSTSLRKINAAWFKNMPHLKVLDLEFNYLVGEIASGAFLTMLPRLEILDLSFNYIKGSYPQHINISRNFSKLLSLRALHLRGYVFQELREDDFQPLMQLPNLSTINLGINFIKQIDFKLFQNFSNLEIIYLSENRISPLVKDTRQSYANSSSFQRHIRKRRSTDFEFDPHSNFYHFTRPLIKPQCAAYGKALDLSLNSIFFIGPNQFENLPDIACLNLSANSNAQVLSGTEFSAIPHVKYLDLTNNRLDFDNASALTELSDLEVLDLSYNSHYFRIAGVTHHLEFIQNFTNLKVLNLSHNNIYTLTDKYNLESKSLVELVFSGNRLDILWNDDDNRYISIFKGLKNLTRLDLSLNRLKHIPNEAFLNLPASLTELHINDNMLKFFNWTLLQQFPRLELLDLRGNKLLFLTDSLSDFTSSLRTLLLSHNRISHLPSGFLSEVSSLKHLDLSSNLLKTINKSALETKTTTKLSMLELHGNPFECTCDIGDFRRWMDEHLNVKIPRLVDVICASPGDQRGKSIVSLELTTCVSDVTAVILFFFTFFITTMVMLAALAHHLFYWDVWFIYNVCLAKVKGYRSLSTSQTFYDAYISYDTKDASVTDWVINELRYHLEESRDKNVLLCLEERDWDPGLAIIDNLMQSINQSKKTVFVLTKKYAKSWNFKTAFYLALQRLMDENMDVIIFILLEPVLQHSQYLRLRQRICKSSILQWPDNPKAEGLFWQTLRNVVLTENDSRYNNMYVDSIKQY
Sequence of human TLR7 (Q9NYK1 27-1049): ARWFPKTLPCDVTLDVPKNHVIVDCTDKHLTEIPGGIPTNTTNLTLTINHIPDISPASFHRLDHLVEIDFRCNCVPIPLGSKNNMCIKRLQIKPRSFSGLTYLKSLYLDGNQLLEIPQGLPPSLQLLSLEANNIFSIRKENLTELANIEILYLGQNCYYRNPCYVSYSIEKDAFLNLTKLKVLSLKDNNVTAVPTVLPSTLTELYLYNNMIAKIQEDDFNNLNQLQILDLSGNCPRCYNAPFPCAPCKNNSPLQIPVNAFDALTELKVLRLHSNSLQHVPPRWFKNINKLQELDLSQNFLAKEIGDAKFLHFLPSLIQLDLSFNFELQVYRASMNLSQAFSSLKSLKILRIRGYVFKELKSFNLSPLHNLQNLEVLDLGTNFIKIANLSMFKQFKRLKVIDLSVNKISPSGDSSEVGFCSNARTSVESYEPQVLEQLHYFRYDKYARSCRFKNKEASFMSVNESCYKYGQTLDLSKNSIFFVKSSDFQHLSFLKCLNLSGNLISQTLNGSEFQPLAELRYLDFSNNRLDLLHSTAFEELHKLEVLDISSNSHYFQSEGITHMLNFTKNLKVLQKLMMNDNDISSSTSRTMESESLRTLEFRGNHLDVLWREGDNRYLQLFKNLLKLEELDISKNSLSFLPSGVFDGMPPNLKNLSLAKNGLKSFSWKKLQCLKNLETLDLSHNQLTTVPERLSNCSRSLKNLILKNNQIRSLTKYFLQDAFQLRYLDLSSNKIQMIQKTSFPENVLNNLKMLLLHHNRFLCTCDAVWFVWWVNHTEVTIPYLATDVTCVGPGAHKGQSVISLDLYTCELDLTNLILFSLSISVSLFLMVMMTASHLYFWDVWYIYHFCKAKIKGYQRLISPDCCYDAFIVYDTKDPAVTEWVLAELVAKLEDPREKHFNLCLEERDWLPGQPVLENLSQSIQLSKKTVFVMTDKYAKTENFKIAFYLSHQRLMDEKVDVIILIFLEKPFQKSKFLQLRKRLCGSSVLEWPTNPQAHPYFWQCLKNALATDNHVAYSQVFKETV
Sequence of human TLR9 (Q9NR96 26-1032): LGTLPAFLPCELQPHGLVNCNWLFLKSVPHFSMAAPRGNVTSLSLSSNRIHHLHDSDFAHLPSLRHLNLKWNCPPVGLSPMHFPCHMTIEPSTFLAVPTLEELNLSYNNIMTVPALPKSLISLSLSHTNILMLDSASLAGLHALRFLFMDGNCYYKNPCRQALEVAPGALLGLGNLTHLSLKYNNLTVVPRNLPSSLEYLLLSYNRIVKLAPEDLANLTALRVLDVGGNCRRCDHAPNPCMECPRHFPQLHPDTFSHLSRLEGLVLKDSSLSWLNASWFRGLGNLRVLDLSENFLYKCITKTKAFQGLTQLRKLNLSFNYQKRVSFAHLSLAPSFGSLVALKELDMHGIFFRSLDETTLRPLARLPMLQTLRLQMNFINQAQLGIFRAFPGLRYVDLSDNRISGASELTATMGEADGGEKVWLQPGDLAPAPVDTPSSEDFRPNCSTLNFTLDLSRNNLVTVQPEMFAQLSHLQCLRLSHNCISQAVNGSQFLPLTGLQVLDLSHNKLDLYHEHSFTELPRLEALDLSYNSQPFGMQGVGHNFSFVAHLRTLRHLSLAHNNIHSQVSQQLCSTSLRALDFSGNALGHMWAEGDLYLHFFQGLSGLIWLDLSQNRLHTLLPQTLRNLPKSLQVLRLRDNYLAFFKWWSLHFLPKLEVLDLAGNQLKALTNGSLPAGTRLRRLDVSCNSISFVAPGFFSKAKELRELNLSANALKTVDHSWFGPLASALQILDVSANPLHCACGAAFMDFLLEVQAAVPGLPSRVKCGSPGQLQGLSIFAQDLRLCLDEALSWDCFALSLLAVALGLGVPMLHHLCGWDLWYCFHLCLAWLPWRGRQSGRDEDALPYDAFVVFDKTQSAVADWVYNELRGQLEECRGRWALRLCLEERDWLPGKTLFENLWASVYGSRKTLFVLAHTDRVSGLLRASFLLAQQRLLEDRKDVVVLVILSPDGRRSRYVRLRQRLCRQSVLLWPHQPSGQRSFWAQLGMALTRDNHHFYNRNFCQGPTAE

One may read the IC50 as the concentration needed to halve the response being measured. Higher therefore signals lower potency. Turning to `COc1ccc(-c2[nH]c3ccc(-c4nnc(C(=O)N(C)CCCN(C)C)o4)cc3c2C(C)C)cc1OC` [Example 96, 5-(2-(3,4-dimethoxyphenyl)-3-isopropyl-1H-indol-5-yl)-N-(3-(dimethylamino)propyl)-N-methyl-1,3,4-oxadiazole-2-carboxamide], the figures for the IC50 in assay [1], in assay [2] and in assay [3] were 49 nM, 4.6 nM and 1220 nM, respectively.

In the case of `Cc1cc(-c2[nH]c3ccc(-c4cccc(C(=O)NC5CCN(C(C)C)CC5)c4)cc3c2C(C)C)ccn1` [Example 16, 3-(3-isopropyl-2-(2-methylpyridin-4-yl)-1H-indol-5-yl)-N-(1-isopropylpiperidin-4-yl)benzamide], the IC50 was 149 nM in assay [1], 39 nM in assay [2] and 14000 nM in assay [3].

Regarding `COc1ccc(-c2[nH]c3ccc(-c4nnc([C@@H]5CCCNC5)o4)cc3c2C(C)C)cc1OC` [Example 55, (R)-2-(2-(3,4-dimethoxyphenyl)-3-isopropyl-1H-indol-5-yl)-5-(piperidin-3-yl)-1,3,4-oxadiazole], the IC50 in assay [1] came out at 32 nM; in assay [2] it was 8.2 nM; in assay [3], 1260 nM.

`CC(C)c1c(-c2ccnc3n[nH]cc23)[nH]c2ccc(-c3nccs3)cc12` [Example 181, 2-(3-isopropyl-2-(2H-pyrazolo[3,4-b]pyridin-4-yl)-1H-indol-5-yl)thiazole]: the IC50 is 680 nM in assay [1], 36 nM in assay [2] and 35100 nM in assay [3].

Regarding `Cc1cc(-c2[nH]c3ccc(-c4ccc(N)nc4)cc3c2C(C)C)ccn1` [Example 237, 5-(3-isopropyl-2-(2-methylpyridin-4-yl)-1H-indol-5-yl)pyridin-2-amine], the IC50 in assay [1] turned out to be 30 nM; in assay [2], 2 nM; in assay [3], 9730 nM.

For `Cc1cc(-c2[nH]c3ccc(-c4ccc(N5CCN(C)CC5)nc4)cc3c2C(C)C)ccn1` [Example 253, 3-isopropyl-5-(6-(4-methylpiperazin-1-yl)pyridin-3-yl)-2-(2-methylpyridin-4-yl)-1H-indole], the results for the IC50 in assay [1], in assay [2] and in assay [3] were 45 nM, 22 nM and 304 nM, respectively.

Consider `CC(C)c1c(-c2ccnc3[nH]ncc23)[nH]c2ccc(-c3noc(C4CCN(C(=O)CN(C)C)CC4)n3)cc12` [Example 446, 2-(dimethylamino)-1-(4-(3-(3-isopropyl-2-(1H-pyrazolo[3,4-b]pyridin-4-yl)-1H-indol-5-yl)-1,2,4-oxadiazol-5-yl)piperidin-1-yl)ethan-1-one], for which the figures for the half-maximal inhibitory concentration (IC50) in assay [1], in assay [2] and in assay [3] were 27 nM, 4 nM and 1020 nM, respectively.

In the case of `FC(F)Cc1c(-c2ccnc3[nH]ncc23)[nH]c2ccc(-c3nnc([C@@H]4CCCNC4)o3)cc12` [Example 243, (R)-2-(3-(2,2-difluoroethyl)-2-(1H-pyrazolo[3,4-b]pyridin-4-yl)-1H-indol-5-yl)-5-(piperidin-3-yl)-1,3,4-oxadiazole], the concentration for half-maximal inhibition (IC50) was determined as 2280 nM in assay [1], 1300 nM in assay [2] and 3260 nM in assay [3].

Consider `COc1ccc(-c2[nH]c3ccc(-c4nc(C(=O)NC5CCN(C(C)C)CC5)cs4)cc3c2C(C)C)cc1OC` [Example 147, 2-(2-(3,4-dimethoxyphenyl)-3-isopropyl-1H-indol-5-yl)-N-(1-isopropylpiperidin-4-yl)thiazole-4-carboxamide], for which the IC50 in assay [1] came to 192 nM; in assay [2] it was 20 nM; in assay [3], 2250 nM.

As for `COc1ccc(-c2[nH]c3ccc(-c4nnc(C(=O)N5CC[C@H](N(C)C)C5)o4)cc3c2C(C)C)cc1OC` [Example 98, (S)-(5-(2-(3,4-dimethoxyphenyl)-3-isopropyl-1H-indol-5-yl)-1,3,4-oxadiazol-2-yl)(3-(dimethylamino)pyrrolidin-1-yl)methanone], the figures for the IC50 in assay [1], in assay [2] and in assay [3] were 68 nM, 17 nM and 2660 nM, respectively.

In the case of `CNC(=O)c1c(-c2ccc3[nH]c(-c4ccnc(C)c4)c(C(C)C)c3c2)nn2c1CNCC2` [Example 215, 2-(3-isopropyl-2-(2-methylpyridin-4-yl)-1H-indol-5-yl)-N-methyl-4,5,6,7-tetrahydropyrazolo[1,5-a]pyrazine-3-carboxamide], the results for the half-maximal inhibitory concentration (IC50) in assay [1], in assay [2] and in assay [3] were 9.8 nM, 14 nM and 20800 nM, respectively.

On to `CC(C)c1c(-c2ccnc3[nH]ncc23)[nH]c2ccc(-c3nnc(CN4CC[C@@H](N(C)C)C4)o3)cc12` [Example 157, (R)-1-((5-(3-isopropyl-2-(1H-pyrazolo[3,4-b]pyridin-4-yl)-1H-indol-5-yl)-1,3,4-oxadiazol-2-yl)methyl)-N,N-dimethylpyrrolidin-3-amine], for which the IC50 was 314 nM in assay [1], 18 nM in assay [2] and 4480 nM in assay [3].

Turning to `COc1ccc(-c2[nH]c3ccc(-c4cccc(C(=O)N[C@H]5CC[C@H](N)CC5)c4)cc3c2C(C)C)cc1OC` [Example 6], the figures for the IC50 in assay [1], in assay [2] and in assay [3] were 121 nM, 42 nM and 2780 nM, respectively.

`Cc1cc(-c2[nH]c3ccc(-c4ccc(NC(=O)CN(C)C)nc4)cc3c2C(C)C)ccn1` [Example 198, 2-(dimethylamino)-N-(5-(3-isopropyl-2-(2-methylpyridin-4-yl)-1H-indol-5-yl)pyridin-2-yl)acetamide]: the IC50 was determined as 26 nM in assay [1], 3 nM in assay [2] and 654 nM in assay [3].

As for `Cc1cc(-c2[nH]c3ccc(-c4nnc(Cc5c[nH]cn5)o4)cc3c2C(C)C)ccn1` [Example 144, 2-((1H-imidazol-4-yl)methyl)-5-(3-isopropyl-2-(2-methylpyridin-4-yl)-1H-indol-5-yl)-1,3,4-oxadiazole], the IC50 is 258 nM in assay [1], 17 nM in assay [2] and greater than 50000 nM in assay [3].

`COc1ccc(-c2[nH]c3ccc(-c4nnc(CNCCS(=O)(=O)O)o4)cc3c2C(C)C)cc1OC` [Example 113, 2-(((5-(2-(3,4-dimethoxyphenyl)-3-isopropyl-1H-indol-5-yl)-1,3,4-oxadiazol-2-yl)methyl)amino)ethane-1-sulfonic acid]: the IC50 in assay [1] was 219 nM; in assay [2], 222 nM; in assay [3], greater than 50000 nM.

Consider `COc1ccc(-c2[nH]c3ccc(-c4ccc(-c5cccc(CN6CCN(C)CC6)c5)cc4)cc3c2C(C)C)cc1OC` [Example 373, 2-(3,4-dimethoxyphenyl)-3-isopropyl-5-(3′-((4-methylpiperazin-1-yl)methyl)-[1,1′-biphenyl]-4-yl)-1H-indole], for which the figures for the IC50 in assay [1], in assay [2] and in assay [3] were 1860 nM, 20100 nM and 4360 nM, respectively.

With `Cc1cc(-c2[nH]c3ccc(-c4nnc(C5CCCC(N)C5)o4)cc3c2C(C)C)ccn1` (stereo not drawn) [Example 179, 3-(5-(3-isopropyl-2-(2-methylpyridin-4-yl)-1H-indol-5-yl)-1,3,4-oxadiazol-2-yl)cyclohexan-1-amine], the values for the IC50 in assay [1], in assay [2] and in assay [3] were 980 nM, 6 nM and 2790 nM, respectively.

`CCc1c(-c2ccc(OC)c(OC)c2)[nH]c2ccc(-c3nnc(C(=O)N4CC5CNCC5C4)o3)cc12` (stereo not drawn) [Example 40, (5-(2-(3,4-dimethoxyphenyl)-3-ethyl-1H-indol-5-yl)-1,3,4-oxadiazol-2-yl)(hexahydropyrrolo[3,4-c]pyrrol-2(1H)-yl)methanone]: the IC50 in assay [1] turned out to be 154 nM; in assay [2], 18 nM; in assay [3], 325 nM.
